Data: ChEMBL document CHEMBL3880422, “C-terminal modified oxamyl dipeptides as inhibitors of the ICE/ced-3 family of cysteine proteases” (2007)

Key:
Caspase-1 (Mus musculus) = target: T1, Caspase-1 (Mus musculus) (UniProt P29452); assay: Inhibition of mouse recombinant ICE assessed as ratio of irreversible rate constant K3 to dissociation constant of the reversible binding step Ki pre-incubated for 60 mins with Acetyl-Tyr-Val-Ala-Asp-amino-4-methylcoumarin substrate followed by enzyme addition by fluorescence based assay
T1 sequence (whole entry): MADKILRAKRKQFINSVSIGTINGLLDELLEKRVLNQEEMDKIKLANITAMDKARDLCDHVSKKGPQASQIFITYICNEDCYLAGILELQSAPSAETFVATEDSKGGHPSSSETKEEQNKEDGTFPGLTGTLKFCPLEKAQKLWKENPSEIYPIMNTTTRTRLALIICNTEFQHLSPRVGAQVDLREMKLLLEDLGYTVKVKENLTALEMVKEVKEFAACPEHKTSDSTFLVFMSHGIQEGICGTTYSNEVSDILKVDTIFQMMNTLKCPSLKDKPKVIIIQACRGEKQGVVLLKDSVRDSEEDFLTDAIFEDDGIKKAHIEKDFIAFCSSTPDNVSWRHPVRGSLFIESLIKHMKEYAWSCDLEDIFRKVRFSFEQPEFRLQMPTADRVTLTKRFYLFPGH

Caspase-8 (Homo sapiens) = Caspase-8 (Homo sapiens) (UniProt Q14790); assay: (§1) Inhibition of recombinant MCH5 (unknown origin) assessed as ratio of irreversible rate constant K3 to dissociation constant of the reversible binding step Ki pre-incubated for 60 mins with Acetyl-Tyr-Val-Ala-Asp-amino-4-methylcoumarin substrate followed by enzyme addition by fluorescence based assay
Caspase-3 (Homo sapiens) = target: T2, Caspase-3 (Homo sapiens) (UniProt P42574); assay: as §1, with “CPP32” for “MCH5”
T2 sequence (whole entry): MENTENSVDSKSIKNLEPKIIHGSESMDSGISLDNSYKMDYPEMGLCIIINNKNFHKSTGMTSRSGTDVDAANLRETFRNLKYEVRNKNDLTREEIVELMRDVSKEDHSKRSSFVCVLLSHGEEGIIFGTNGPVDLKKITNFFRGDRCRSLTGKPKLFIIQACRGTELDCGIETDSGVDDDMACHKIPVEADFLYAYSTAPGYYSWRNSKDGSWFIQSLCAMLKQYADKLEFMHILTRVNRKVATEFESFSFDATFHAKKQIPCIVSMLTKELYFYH

Caspase-6 (Homo sapiens) = target: T3, Caspase-6 (Homo sapiens) (UniProt P55212); assay: Inhibition of recombinant MCH2 (unknown origin) assessed as ratio of irreversible rate constant K3 to dissociation constant of the reversible binding step Ki pre-incubated for 60 mins with Acetyl-Tyr-Val-Ala-Asp-amino-4-methylcoumarin substrate followed by enzyme addition by fluorescence based assay
T3 sequence (whole entry): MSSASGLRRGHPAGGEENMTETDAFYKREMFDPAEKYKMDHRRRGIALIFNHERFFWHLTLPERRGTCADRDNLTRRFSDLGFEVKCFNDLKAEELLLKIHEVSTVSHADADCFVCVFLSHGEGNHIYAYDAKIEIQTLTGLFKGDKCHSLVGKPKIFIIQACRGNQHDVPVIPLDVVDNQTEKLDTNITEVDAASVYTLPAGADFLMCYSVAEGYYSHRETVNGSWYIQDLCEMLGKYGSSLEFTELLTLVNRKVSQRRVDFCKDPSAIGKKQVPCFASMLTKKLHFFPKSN

Caspase-8 (Homo sapiens), sequence (Q14790 217-374 limits assumed): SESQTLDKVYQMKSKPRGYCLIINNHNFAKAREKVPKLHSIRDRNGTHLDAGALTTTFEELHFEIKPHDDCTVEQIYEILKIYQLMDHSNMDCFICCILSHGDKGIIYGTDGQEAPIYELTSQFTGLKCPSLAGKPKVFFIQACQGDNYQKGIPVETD
Caspase-8 (Homo sapiens), sequence (Q14790 385-479 limits assumed): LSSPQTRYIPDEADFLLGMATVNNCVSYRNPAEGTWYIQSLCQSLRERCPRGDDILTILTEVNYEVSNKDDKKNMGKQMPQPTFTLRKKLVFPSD

| SMILES | Ratio (Caspase-1 (Mus musculus)) [M⁻¹ s⁻¹] | Ratio (Caspase-8 (Homo sapiens)) [M⁻¹ s⁻¹] | Ratio (Caspase-3 (Homo sapiens)) [M⁻¹ s⁻¹] | Ratio (Caspase-6 (Homo sapiens)) [M⁻¹ s⁻¹] |
| --- | --- | --- | --- | --- |
| CC(C)[C@H](NC(=O)C(=O)Nc1cccc2ccccc12)C(=O)NC(CC(=O)O)C(=O)CF (mixture of isomers) | 2.17e+06 | 1.16e+06 | 413000 | 199000 |
| C[C@H](NC(=O)C(=O)NCc1cccc2ccccc12)C(=O)N[C@@H](CC(=O)O)C(=O)COC(=O)c1c(Cl)cccc1Cl | 1.16e+06 | 936000 | 187000 | 214000 |
| CC(C)[C@H](NC(=O)C(=O)Nc1ccc(F)cc1)C(=O)N[C@@H](CC(=O)O)C(=O)COc1c(F)c(F)cc(F)c1F | 906000 | 338000 | 36300 | 121000 |
| C[C@H](NC(=O)C(=O)Nc1cccc2c1CCCC2)C(=O)N[C@@H](CC(=O)O)C(=O)COP(=O)(c1ccccc1)c1ccccc1 | 315000 to 905000 | 71800 to 1.15e+06 | 139000 to 157000 | 120000 to 132000 |
| CC(C)[C@H](NC(=O)C(=O)Nc1cccc2ccccc12)C(=O)N[C@@H](CC(=O)O)C(=O)COc1ccc(O)cc1 | 1.84e+06 | 625000 | 286000 | 69100 |
| C[C@H](NC(=O)C(=O)Nc1ccccc1-c1ccccc1)C(=O)N[C@@H](CC(=O)O)C(=O)COC(=O)c1c(Cl)cccc1Cl | 259000 | 125000 | 388000 | 219000 |
| CC(C)[C@H](NC(=O)C(=O)Nc1ccccn1)C(=O)N[C@@H](CC(=O)O)C(=O)COc1c(F)c(F)cc(F)c1F | 36000 | 19500 | 9850 | 11600 |
| CC(C)[C@H](NC(=O)C(=O)Nc1cccc2ccccc12)C(=O)N[C@@H](CC(=O)O)C(=O)COc1cccc2ccccc12 | 254000 | 177000 | 180000 | 83700 |
| CC(C)[C@H](NC(=O)C(=O)NC1CCCc2ccccc21)C(=O)N[C@@H](CC(=O)O)C(=O)COc1c(F)c(F)cc(F)c1F (stereo partly specified) | 2.32e+06 | 456000 | 98600 | 160000 |
| CC(C)[C@H](NC(=O)C(=O)Nc1ccncc1)C(=O)N[C@@H](CC(=O)O)C(=O)COc1c(F)c(F)cc(F)c1F | 912 | 1140 | 511 | 5580 |
| C[C@H](NC(=O)C(=O)Nc1ccccc1C(C)(C)C)C(=O)N[C@@H](CC(=O)O)C(=O)COP(=O)(c1ccccc1)c1ccccc1 | 159000 to 625000 | 282000 to 589000 | 327000 to 395000 | 275000 to 484000 |
| CC(C)[C@H](NC(=O)C(=O)NCCc1ccccc1)C(=O)N[C@@H](CC(=O)O)C(=O)COc1c(F)c(F)cc(F)c1F | 77100 | 16600 | 13400 | 12600 |
| CC(C)[C@H](NC(=O)C(=O)Nc1c(F)c(F)nc(F)c1F)C(=O)N[C@@H](CC(=O)O)C(=O)COc1c(F)c(F)cc(F)c1F | 1.22e+06 | 389000 | 153000 | 170000 |
| C[C@H](NC(=O)C(=O)Nc1ccccc1C(C)(C)C)C(=O)N[C@@H](CC(=O)O)C(=O)COc1ccccc1F | 442000 | 119000 | 67700 | 54900 |
